Earlier results as cited in PubChem BioAssay AID1259409 (Chemical Carcinogenesis Research Information System (CCRIS), 2018).

Test system: rodent chemically induced tumor inhibition, incidence and multiplicity
Assay: CCRIS tumor inhibitor studies

Q: With `C=Cc1ccc2ccc3cccc4ccc1c2c34` as the molecule, how does the “tumour outcome (control, treated, inhibition, significance)” value (Carcinogen: 7,12-DIMETHYLBENZ[A]ANTHRACENE, 57-97-6, Dose [Inhibitor]: 0, 44 NMOL IN 0.2 ML ACETONE APPLIED TO BACK ONCE 5 MIN PRIOR TO CARCINOGEN DOSE (STUDY DURATION: 26 WK), Route [Inhibitor]: DERMAL, Species: MOUSE, Strain/Sex: SENCAR/FEMALE, Target Tissue: Type of Lesion: SKIN: PAPILLOMA, Dose [Carcinogen]: 10 NMOL IN 0.2 ML ACETONE APPLIED TO BACK ONCE.) read?
A: The value was 100%, 100%, 0%, not significant.

Q: What about the “tumour outcome (control, treated, inhibition, significance)” value (Carcinogen: 7,12-DIMETHYLBENZ[A]ANTHRACENE, 57-97-6, Dose [Inhibitor]: 0, 440 NMOL IN 0.2 ML ACETONE APPLIED TO BACK ONCE 5 MIN PRIOR TO CARCINOGEN DOSE (STUDY DURATION: 26 WK), Route [Inhibitor]: DERMAL, Species: MOUSE, Strain/Sex: SENCAR/FEMALE, Target Tissue: Type of Lesion: SKIN: PAPILLOMA, Dose [Carcinogen]: 10 NMOL IN 0.2 ML ACETONE APPLIED TO BACK ONCE.) of the same molecule?
A: The value was 100%, 92%, 8%, not calculated.

Q: What about the “tumour outcome (control, treated, inhibition, significance)” value (Carcinogen: 7,12-DIMETHYLBENZ[A]ANTHRACENE, 57-97-6, Dose [Inhibitor]: 0, 4400 NMOL IN 0.2 ML ACETONE APPLIED TO BACK ONCE 5 MIN PRIOR TO CARCINOGEN DOSE (STUDY DURATION: 20 WK), Route [Inhibitor]: DERMAL, Species: MOUSE, Strain/Sex: SENCAR/FEMALE, Target Tissue: Type of Lesion: SKIN: PAPILLOMA, Dose [Carcinogen]: 10 NMOL IN 0.2 ML ACETONE APPLIED TO BACK ONCE.) of the same molecule?
A: The value was 100%, 68%, 32%, not calculated.

Q: What about the “tumour outcome (control, treated, inhibition, significance)” value (Carcinogen: 7,12-DIMETHYLBENZ[A]ANTHRACENE, 57-97-6, Dose [Inhibitor]: 0, 4400 NMOL IN 0.2 ML ACETONE APPLIED TO BACK ONCE 5 MIN PRIOR TO CARCINOGEN DOSE (STUDY DURATION: 26 WK), Route [Inhibitor]: DERMAL, Species: MOUSE, Strain/Sex: SENCAR/FEMALE, Target Tissue: Type of Lesion: SKIN: PAPILLOMA, Dose [Carcinogen]: 10 NMOL IN 0.2 ML ACETONE APPLIED TO BACK ONCE.) of the same molecule?
A: Its value is 100%, 79%, 21%, not calculated.

Q: And the “tumour outcome (control, treated, inhibition, significance)” value (Carcinogen: 7,12-DIMETHYLBENZ[A]ANTHRACENE, 57-97-6, Dose [Inhibitor]: 0, 44000 NMOL IN 0.2 ML ACETONE APPLIED TO BACK ONCE 5 MIN PRIOR TO CARCINOGEN DOSE (STUDY DURATION: 20 WK), Route [Inhibitor]: DERMAL, Species: MOUSE, Strain/Sex: SENCAR/FEMALE, Target Tissue: Type of Lesion: SKIN: PAPILLOMA, Dose [Carcinogen]: 10 NMOL IN 0.2 ML ACETONE APPLIED TO BACK ONCE.)?
A: The value was 100%, 24%, 76%, not calculated.

Q: And the “tumour outcome (control, treated, inhibition, significance)” value (Carcinogen: BENZO[A]PYRENE, 50-32-8, Dose [Inhibitor]: 0, 2200 NMOL IN 0.2 ML ACETONE APPLIED TO BACK ONCE 5 MIN PRIOR TO CARCINOGEN DOSE (STUDY DURATION: 26 WK), Route [Inhibitor]: DERMAL, Species: MOUSE, Strain/Sex: SENCAR/FEMALE, Target Tissue: Type of Lesion: SKIN: PAPILLOMA, Dose [Carcinogen]: 200 NMOL IN 0.2 ML ACETONE APPLIED TO BACK ONCE.)?
A: The value was 100%, 95%, 5%, not calculated.

Q: And the “tumour outcome (control, treated, inhibition, significance)” value (Carcinogen: BENZO[A]PYRENE, 50-32-8, Dose [Inhibitor]: 0, 4400 NMOL IN 0.2 ML ACETONE APPLIED TO BACK ONCE 5 MIN PRIOR TO CARCINOGEN DOSE (STUDY DURATION: 20 WK), Route [Inhibitor]: DERMAL, Species: MOUSE, Strain/Sex: SENCAR/FEMALE, Target Tissue: Type of Lesion: SKIN: PAPILLOMA, Dose [Carcinogen]: 200 NMOL IN 0.2 ML ACETONE APPLIED TO BACK ONCE., Promoter: PHORBOLMYRISTATE ACETATE, 16561-29-8)?
A: The value was 75%, 64%, 15%, not calculated.

Q: And the “tumour outcome (control, treated, inhibition, significance)” value (Carcinogen: BENZO[A]PYRENE, 50-32-8, Dose [Inhibitor]: 0, 22000 NMOL IN 0.2 ML ACETONE APPLIED TO BACK ONCE 5 MIN PRIOR TO CARCINOGEN DOSE (STUDY DURATION: 26 WK), Route [Inhibitor]: DERMAL, Species: MOUSE, Strain/Sex: SENCAR/FEMALE, Target Tissue: Type of Lesion: SKIN: PAPILLOMA, Dose [Carcinogen]: 200 NMOL IN 0.2 ML ACETONE APPLIED TO BACK ONCE.)?
A: The value was 100%, 59%, 41%, not calculated.

Q: And the “tumour outcome (control, treated, inhibition, significance)” value (Carcinogen: BENZO[A]PYRENE, 50-32-8, Dose [Inhibitor]: 0, 44000 NMOL IN 0.2 ML ACETONE APPLIED TO BACK ONCE 5 MIN PRIOR TO CARCINOGEN DOSE (STUDY DURATION: 20 WK), Route [Inhibitor]: DERMAL, Species: MOUSE, Strain/Sex: SENCAR/FEMALE, Target Tissue: Type of Lesion: SKIN: PAPILLOMA, Dose [Carcinogen]: 200 NMOL IN 0.2 ML ACETONE APPLIED TO BACK ONCE)?
A: Its value is 75%, 59%, 21%, not calculated.

Q: And the “tumour outcome (control, treated, inhibition, significance)” value (Carcinogen: BENZO[A]PYRENE, 50-32-8, Dose [Inhibitor]: 0, 44000 NMOL IN 0.2 ML ACETONE APPLIED TO BACK ONCE 5 MIN PRIOR TO CARCINOGEN DOSE (STUDY DURATION: 26 WK), Route [Inhibitor]: DERMAL, Species: MOUSE, Strain/Sex: SENCAR/FEMALE, Target Tissue: Type of Lesion: SKIN: PAPILLOMA, Dose [Carcinogen]: 200 NMOL IN 0.2 ML ACETONE APPLIED TO BACK ONCE.)?
A: Its value is 100%, 38%, 62%, not calculated.

Q: What about the “tumour outcome (control, treated, inhibition, significance)” value (Carcinogen: N-METHYL-N'-NITRO-N-NITROSOGUANIDINE, 70-25-7, Dose [Inhibitor]: 0, 22000 NMOL IN 0.2 ML ACETONE APPLIED TO BACK ONCE 5 MIN PRIOR TO CARCINOGEN DOSE (STUDY DURATION: 20 WK), Route [Inhibitor]: DERMAL, Species: MOUSE, Strain/Sex: SENCAR/FEMALE, Target Tissue: Type of Lesion: SKIN: PAPILLOMA, Dose [Carcinogen]: 2500 NMOL IN 0.2 ML ACETONE APPLIED TO BACK ONCE.) of the same molecule?
A: The value was 78%, 79%, -1%, not calculated.

Q: With `CC1=C(/C=C/C(C)=C/C=C/C(C)=C/C(=O)Nc2nn[nH]n2)C(C)(C)CCC1` as the molecule, how does the “tumour outcome (control, treated, inhibition, significance)” value (Carcinogen: N-BUTYL-N-(4-HYDROXYBUTYL)NITROSAMINE, 3817-11-6, Dose [Inhibitor]: 1.5 MMOL/KG DIET DAILY FOR 159 D STARTING 1 WK AFTER THE FINAL CARCINOGEN DOSE (STUDY DURATION: 216 D), Route [Inhibitor]: ORAL, Species: MOUSE, Strain/Sex: BDF/MALE, Target Tissue: Type of Lesion: URINARY BLADDER: TRANSITIONAL CELL CARCINOMA, Dose [Carcinogen]: 7.5 MG 1/WK FOR 8 WK, Promoter: NONE USED) read?
A: The value was 29/98 (30%), 15/97 (16%), 47%, p<0.05.

Q: And the “tumour outcome (control, treated, inhibition, significance)” value (Carcinogen: N-BUTYL-N-(4-HYDROXYBUTYL)NITROSAMINE, 3817-11-6, Dose [Inhibitor]: 1.5 MMOL/KG/D IN DIET FOR 159 D STARTING 1 WK POST CARCINOGEN TREATMENT (STUDY DURATION: 216 D), Route [Inhibitor]: ORAL, Species: MOUSE, Strain/Sex: BDF/MALE, Target Tissue: Type of Lesion: URINARY BLADDER: TRANSITIONAL CELL CARCINOMA, Dose [Carcinogen]: 7.5 MG 1/WK FOR 8 WK, Promoter: NONE USED)?
A: Its value is 29/98 (30%), 15/97 (16%), 47%, p<0.05.

Q: For `CC(/C=C/C=C(\C)C(=O)O)=C\C=C\C=C(C)\C=C\C=C(/C)C(=O)O`, which “tumour outcome (control, treated, inhibition, significance)” value (Carcinogen: BENZO[A]PYRENE, 50-32-8, Dose [Inhibitor]: 0, 0.2 UMOL IN 0.2 ML ACETONE 2/WK FOR 20 WK ADMINISTERED CONCURRENTLY WITH PROMOTER (STUDY DURATION: 21 WK), Route [Inhibitor]: DERMAL, Species: MOUSE, Strain/Sex: CD-1/FEMALE, Target Tissue: Type of Lesion: SKIN: PAPILLOMA, Dose [Carcinogen]: 20 NMOL IN 0.2 ML ACETONE 1/WK FOR 10 WK, Promoter: 12-O-TETRADECANOYLPHORBOL-13-ACETATE, 16561-29-8) is on record?
A: The value was 100%, 53%, 47%, not calculated.

Q: What about the “tumour outcome (control, treated, inhibition, significance)” value (Carcinogen: BENZO[A]PYRENE, 50-32-8, Dose [Inhibitor]: 0, 1 UMOL IN 0.2 ML ACETONE 2/WK FOR 20 WK ADMINISTERED CONCURRENTLY WITH PROMOTER (STUDY DURATION: 21 WK), Route [Inhibitor]: DERMAL, Species: MOUSE, Strain/Sex: CD-1/FEMALE, Target Tissue: Type of Lesion: SKIN: PAPILLOMA, Dose [Carcinogen]: 20 NMOL IN 0.2 ML ACETONE 1/WK FOR 10 WK, Promoter: 12-O-TETRADECANOYLPHORBOL-13-ACETATE, 16561-29-8) of the same molecule?
A: Its value is 100%, 28%, 72%, not calculated.

Q: What does the source list for `c1cnc2c(c1)ccc1cccnc12`?
A: tumour outcome (control, treated, inhibition, significance) (Dose [Inhibitor]: 0, 15 MG/KG BW EVERY OTHER DAY BEGINNING 1 WK AFTER CARCINOGEN DOSING THROUGH WK 52 WK (STUDY DURATION: 52 WK), Route [Inhibitor]: INTRAPERITONEAL, Species: RAT, Strain/Sex: WISTAR/MALE, Target Tissue: Type of Lesion: STOMACH: ADENOCARCINOMA, Dose [Carcinogen]: 25 UG/ML IN DRINKING WATER FOR 25 WK, Promoter: SODIUM CHLORIDE (7647-14-5)): 19/20 (95%), 9/20 (45%), 53%, p< 0.001; tumour outcome (control, treated, inhibition, significance) (Dose [Inhibitor]: 0, 30 MG/KG BW EVERY OTHER DAY BEGINNING 1 WK AFTER CARCINOGEN DOSING THROUGH WK 52 WK (STUDY DURATION: 52 WK), Route [Inhibitor]: INTRAPERITONEAL, Species: RAT, Strain/Sex: WISTAR/MALE, Target Tissue: Type of Lesion: STOMACH: ADENOCARCINOMA, Dose [Carcinogen]: 25 UG/ML IN DRINKING WATER FOR 25 WK, Promoter: SODIUM CHLORIDE (7647-14-5)): 19/20 (95%), 7/20 (35%), 63%, p< 0.01

Q: For `CCCCOCCOCCOCc1cc2c(cc1CCC)OCO2`, which “tumour outcome (control, treated, inhibition, significance)” value (Carcinogen: N-NITROSODIETHYLAMINE, 55-18-5, Dose [Inhibitor]: 400 MG/KG IN 0.2 ML SESAME OIL (TOTAL VOL 0.1 ML) 2 HR PRIOR TO EACH CARCINOGEN DOSE (STUDY DURATION: 21 WK), Route [Inhibitor]: SUBCUTANEOUS, Species: HAMSTER, Strain/Sex: SYRIAN/MALE, Target Tissue: Type of Lesion: LUNG: ADENOMA, ADENOCARCINOMA, Dose [Carcinogen]: 17.8 MG/KG IN 0.9% SALINE (TOTAL VOL 0.1 ML) 2/WK FOR 20 WK, Promoter: NONE USED) is on record?
A: Its value is 6/10 (60%), 0/10 (0%), 100%, p<0.01.
